System: maximal (tonic hindlimb extension) electroshock seizures in male rats
Assay: Maximal electroshock seizure (MEST) threshold test, rat model
Assay type: in vivo, rats (Sprague Dawley)
Conditions: 2 mg/kg p.o., suspension in methyl cellulose, one hour post dosing, statistically significant, percentage increase in CC50 compared to control
Protocol: The maximal electroshock seizure (MEST) threshold test in rodents is particularly sensitive for detecting potential anticonvulsant properties ^1. In this model, anticonvulsant agents elevate the threshold to electrically-induced seizures whilst proconvulsants lower the seizure threshold.
Mice (naive male, Charles River, U.K. CD-1 strain, 25 - 30g) are randomly assigned to groups of 10 - 20 and dosed orally or intraperitoneally at a dose volume of 10 ml/kg with various doses of compound (0.3 - 300 mg/kg) or vehicle. Mice are then subjected at 30 or 60 min post dose to a single electroshock (0.1 sec, 50Hz, sine wave form) administered via corneal electrodes. The mean current and standard error required to induce a tonic seizure in 50% (CC50) of the mice in a particular treatment group is determined by the 'up and down' method of Dixon and Mood (1948)^2. Statistical comparisons between vehicle- and drug-treated groups are made using the method of Litchfield and Wilcoxon (1949)^3. […]
The threshold for maximal (tonic hindlimb extension) electroshock seizures in male rats (Sprague Dawley, 80 - 150g, 6 weeks old) was determined by a Hugo Sachs Electronik stimulator which delivered a constant current (0.3 sec duration; from 1-300mA in steps of 5-20mA). . […]
The percentage increase or decrease in CC50 for each group compared to the control is calculated. […]

How did the “increase in seizure threshold” value turn out when `COc1ccc(C(=O)Nc2ccc3c(c2)C2CCCN2CC3)cc1C(F)(F)F` (racemic) [Example 3, (+/-)N-(1,2,3,5,6,10b-hexahydropyrrolo[2,1-a]isoquinolin-9-yl)-4-methoxy-3-trifluoromethylbenzamide] was run?
The value was 426%.

Reference: EP1102769B1, “TRICYCLIC CARBOXAMIDES” (SmithKline Beecham plc, priority 1998, dated 2000)
